# From ChEMBL document CHEMBL5712883, “RNA polymerase II stalling promotes nucleosome occlusion and pTEFb recruitment to drive immortalization by Epstein-Barr virus” (PLoS Pathog, 2011)
# Calls of active or inactive are those of the source. No cut-off for these calls is given here.
# Tests used:
# Conditions in all cases: Mutu-3, dose 50.0 nM, time 48.0 hrs
# [1] = target: Bromodomain-containing protein 4 (Homo sapiens) (UniProt O60885)
# Description: Inhibition of BRD4 in human Mutu-3 cells assessed as decrease in CDK9 association in +295 cp region at 50 nM incubated for 48 hrs by CHIP analysis
# [2] = target: Bromodomain-containing protein 4 (Homo sapiens) (UniProt O60885); remark: listed apart in the source
# Description: Inhibition of BRD4 in human Mutu-3 cells assessed as decrease in Cp-initiated EBNA 2 transcription at 50 nM incubated for 48 hrs by Q-PCR analysis relative to control
# [3] = target: Bromodomain-containing protein 4 (Homo sapiens) (UniProt O60885); remark: listed apart in the source
# Description: Inhibition of BRD4 in human Mutu-3 cells assessed as decrease in Cyclin T1 association in -208 cp region at 50 nM incubated for 48 hrs by CHIP analysis
# [4] = target: Bromodomain-containing protein 4 (Homo sapiens) (UniProt O60885); remark: listed apart in the source
# Description: Inhibition of BRD4 in human Mutu-3 cells assessed as decrease in Brd4 association in +48 cp region at 50 nM incubated for 48 hrs by CHIP analysis
# [5] = target: Bromodomain-containing protein 4 (Homo sapiens) (UniProt O60885); remark: listed apart in the source
# Description: Inhibition of BRD4 in human Mutu-3 cells assessed as decrease in Cp-initiated EBNA 1 transcription at 50 nM incubated for 48 hrs by Q-PCR analysis relative to control
# [6] = target: Bromodomain-containing protein 4 (Homo sapiens) (UniProt O60885); remark: listed apart in the source
# Description: Inhibition of BRD4 in human Mutu-3 cells assessed as decrease in Cp-initiated LMP1 transcription at 50 nM incubated for 48 hrs by Q-PCR analysis relative to control
# [7] = target: Bromodomain-containing protein 4 (Homo sapiens) (UniProt O60885); remark: listed apart in the source
# Description: Inhibition of BRD4 in human Mutu-3 cells assessed as decrease in CDK9 association in +48 cp region at 50 nM incubated for 48 hrs by CHIP analysis
# [8] = target: Bromodomain-containing protein 4 (Homo sapiens) (UniProt O60885); remark: listed apart in the source
# Description: Inhibition of BRD4 in human Mutu-3 cells assessed as decrease in Brd4 association in -40 cp region at 50 nM incubated for 48 hrs by CHIP analysis
# [9] = target: Bromodomain-containing protein 4 (Homo sapiens) (UniProt O60885); remark: listed apart in the source
# Description: Inhibition of BRD4 in human Mutu-3 cells assessed as decrease in Brd4 association in -208 cp region at 50 nM incubated for 48 hrs by CHIP analysis
# [10] = target: Bromodomain-containing protein 4 (Homo sapiens) (UniProt O60885); remark: listed apart in the source
# Description: Inhibition of BRD4 in human Mutu-3 cells assessed as decrease in CDK9 association in -40 cp region at 50 nM incubated for 48 hrs by CHIP analysis
# [11] = target: Bromodomain-containing protein 4 (Homo sapiens) (UniProt O60885); remark: listed apart in the source
# Description: Inhibition of BRD4 in human Mutu-3 cells assessed as decrease in Cyclin T1 association in +48 cp region at 50 nM incubated for 48 hrs by CHIP analysis
# [12] = target: Bromodomain-containing protein 4 (Homo sapiens) (UniProt O60885); remark: listed apart in the source
# Description: Inhibition of BRD4 in human Mutu-3 cells assessed as decrease in Brd4 association in +295 cp region at 50 nM incubated for 48 hrs by CHIP analysis
# [13] = target: Bromodomain-containing protein 4 (Homo sapiens) (UniProt O60885); remark: listed apart in the source
# Description: Inhibition of BRD4 in human Mutu-3 cells assessed as decrease in CDK9 association in -208 cp region at 50 nM incubated for 48 hrs by CHIP analysis
# [14] = target: Bromodomain-containing protein 4 (Homo sapiens) (UniProt O60885); remark: listed apart in the source
# Description: Inhibition of BRD4 in human Mutu-3 cells assessed as decrease in Cyclin T1 association in +295 cp region at 50 nM incubated for 48 hrs by CHIP analysis
# [15] = target: Bromodomain-containing protein 4 (Homo sapiens) (UniProt O60885); remark: listed apart in the source
# Description: Inhibition of BRD4 in human Mutu-3 cells assessed as decrease in Cyclin T1 association in -40 cp region at 50 nM incubated for 48 hrs by CHIP analysis
structure (smiles),measurement,setting,value
Cc1sc2c(c1C)C(c1ccc(Cl)cc1)=N[C@@H](CC(=O)OC(C)(C)C)c1nnc(C)n1-2,inhibition,[1],Active
same,inhibition,[2],74%
same,inhibition,[3],Active
same,inhibition,[4],Active
same,inhibition,[5],65%
same,inhibition,[6],inactive
same,inhibition,[7],Active
same,inhibition,[8],Active
same,inhibition,[9],Active
same,inhibition,[10],Active
same,inhibition,[11],Active
same,inhibition,[12],Active
same,inhibition,[13],Active
same,inhibition,[14],Active
same,inhibition,[15],Active
